In patent US9682151B2, “Peptides whose uptake in cells is controllable” (The Regents of the University of California, priority 2009, dated 2017):

How the values were obtained:
Type in all cases: in vivo, mice
[1] = Fluorescence uptake of Cy5-labeled selective transport molecules in tumor and muscle (Table 2), MDA-MB 435; settings: nude, mouse, in vivo, iv; MDA-MB 435 xenograft
Experimental: (§1) Xenografts with HT1080 human fibroscarcoma cells (ATCC) or MDA-MB 435 human melanoma cells were used. Allografts were generated in the lab with 8119 murine mammary adenocarcinoma cells and B16F10 murine melanoma cells. 1×10^6 cells (either 8119 or BI6F10) were injected intramuscularly into the left flank of albino C57BL/6 mice. Tumor allografts were monitored until tumor size was approximately 1 cm in largest diameter (approximately 7-10 days).
(§2) Briefly 30 mg tissues was homogenized and heated in SDS buffer, frozen, and then imaged by fluorescence. SUV ((moles/g tissue)/(moles injected/weight of the animal)) values were determined by comparing experimental fluorescence to standard curves derived by peptide spiked tissue processed similarly.
(§3) To test whether selective transport molecules are taken up differentially between tumor and normal tissue, allografts derived from spontaneous mammary adenocarcinoma tumors in transgenic mice (line 8119, MMTV-PyMT) and the murine melanoma cell line B16F10 transplanted into immune competent mice, and human cancer cell lines (MDA-MB 435 melanoma and HT1080 fibrosarcoma) xenografted into nude mice, were imaged after intravenous injection of Cy5-labeled selective transport molecules and sufficient time for elimination of uncleaved selective transport molecules. Cy5 was chosen as a labeling marker because of its reduced tissue absorption in the near infrared range.

[2] = system: MDA-MB 435 human melanoma cells; assay: as above
Experimental: as §1, §2, §3

[3] = Fluorescence uptake of Cy5-labeled selective transport molecules in tumor and muscle (Table 2), HT1080; settings: nude, mouse, in vivo, iv; HT1080 xenograft
Experimental: as §1, §2, §3

[4] = system: HT1080 human fibroscarcoma cells; assay: as above; settings: HT1080 xenograft
Experimental: as §1, §2, §3

[5] = Fluorescence uptake of Cy5-labeled selective transport molecules in tumor and muscle (Table 2), 8119; settings: albino C57BL/6, mouse, in vivo, iv; 8119 allograft
Experimental: as §1, §2, §3

[6] = system: 8119 murine mammary adenocarcinoma cells; assay: as above; settings: 8119 allograft
Experimental: as §1, §2, §3

[7] = Fluorescence uptake of Cy5-labeled selective transport molecules in tumor and muscle (Table 2), B16F10; settings: albino C57BL/6, mouse, in vivo, iv; B16F10 allograft
Experimental: as §1, §2, §3

[8] = system: B16F10 murine melanoma cells; assay: as above; settings: B16F10 allograft
Experimental: as §1, §2, §3

HT1080 cells = assay: Residual tumor cell quantification with Alu PCR after guided surgery; settings: free 10 nmoles 6 hours, dendrimer 2 nmoles 48 hours prior to surgery
Experimental: Animals used for quantification of residual tumor cells after surgery were performed on xenograft of HT1080 cells generated as detailed above Animals were anesthetized with 80 mg/kg ketamine and 40 mg/kg midazolam. Following skin incision and retraction, tumors were removed with microsurgical technique using a dissecting microscope (Zeiss, Lumar).
Fluorescence guidance of tumor excision was performed as detailed above for the survival studies with GFP, free selective transport molecule (10 nmoles; 6 hours prior to surgery) or dendrimer selective transport molecule (2 nmoles; 48 hours prior to surgery). For animals in the GFP guidance arm, the surgical field was assessed through the dissecting scope with excitation and emission parameters for GFP. […] Following completion of tumor resection, the remaining surgical bed was resected with at least a 5 mm margin in all contiguous dimensions and analyzed for Alu sequences. Alu PCR analysis of the remaining surgical bed for residual tumor cells were performed. […]
To quantify the efficacy of tumor excision with selective transport molecule guidance, we used Alu PCR to measure residual human (cancer) cells remaining in the tumor bed after surgical excision.

CCN1C(=CC=CC=CC2=[N+](CCCCCC(=O)NCCN3C(=O)CC(SC[C@@H](NC(=O)[C@@H](CCCNC(=N)N)NC(=O)[C@@H](CCCNC(=N)N)NC(=O)[C@@H](CCCNC(=N)N)NC(=O)[C@@H](CCCNC(=N)N)NC(=O)[C@@H](CCCNC(=N)N)NC(=O)[C@@H](CCCNC(=N)N)NC(=O)[C@@H](CCCNC(=N)N)NC(=O)[C@@H](CCCNC(=N)N)NC(=O)[C@@H](CCCNC(=N)N)NC(=O)CNC(=O)[C@H](C)NC(=O)[C@H](CSC)NC(=O)CNC(=O)[C@H](CC(C)C)NC(=O)[C@@H]4CCCN4C(=O)COCCNC(=O)[C@@H](CCC(=O)O)NC(=O)[C@@H](CCC(=O)O)NC(=O)[C@@H](CCC(=O)O)NC(=O)[C@@H](CCC(=O)O)NC(=O)[C@@H](CCC(=O)O)NC(=O)[C@@H](CCC(=O)O)NC(=O)[C@@H](CCC(=O)O)NC(=O)[C@@H](CCC(=O)O)NC(=O)CCC(=O)O)C(N)=O)C3=O)c3ccc(S(=O)(=O)[O-])cc3C2(C)C)C(C)(C)c2cc(S(=O)(=O)O)ccc21 (single isomer, unassigned) [Free Selective Transport Molecules]
tissue to tissue ratio [1]: 2.45 | Ratio (tumor to muscle) ([2]; MDA-MB 435 xenograft): 2.45 | Muscle (fluorescence uptake) ([2]; MDA-MB 435 xenograft, Cy5 label, intravenous): 0.29 ± 0.068 | Tumor (fluorescence uptake) ([2]; MDA-MB 435 xenograft, Cy5 label, intravenous, SUV defined): 0.17 ± 0.05 | contrast between tumor and adjacent normal tissue ([2]; same figures as the MDA-MB 435 ratios of Table 2): 2.45 fold | tissue to tissue ratio [3]: 3.82 | Ratio (tumor to muscle) [4]: 3.82 | Muscle (fluorescence uptake) ([4]; Cy5 label, intravenous): 0.11 ± 0.08 | Tumor (fluorescence uptake) ([4]; Cy5 label, intravenous): 0.42 ± 0.08 | tissue to tissue ratio [5]: 3.5 | Ratio (tumor to muscle) [6]: 3.5 | Muscle (fluorescence uptake) ([6]; Cy5 label, intravenous): 0.11 ± 0.06 | Tumor (fluorescence uptake) ([6]; Cy5 label, intravenous): 0.39 ± 0.12 | tissue to tissue ratio [7]: 2.4 | Ratio (tumor to muscle) [8]: 2.4 | Muscle (fluorescence uptake) ([8]; Cy5 label, intravenous): 0.10 ± 0.03 | Tumor (fluorescence uptake) ([8]; Cy5 label, intravenous): 0.24 ± 0.06 | log [DNA] (residual tumor DNA in surgical bed) (HT1080 cells): 4.67±0.33
